Legend:
Assay in all cases: relative viability (nuclei count vs DMSO), 5 days (fraction); higher = more cells survive
LCLC-103H = system: LCLC-103H
Outline: (§1)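 Relative viability divides the nuclei count in treated wells by that in vehicle wells. Lung cancer cell lines were seeded in 1536-well plates, dosed by pin tool the next day, and fixed and stained after 5 days in one step with final 0.05% Triton X-100, 1% formaldehyde and 1 ug/ml Hoechst. Dosing was a single drug or a fixed anchor-drug dose plus five library-drug doses (not always all listed) in √10 steps, and values are medians of duplicate plates imaged at 4×.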

HCC-15 = system: HCC-15
Outline: as §1

PC-14 = system: PC-14
Outline: as §1

NCI-H661 = system: NCI-H661
Outline: as §1

NCI-H1437 = system: NCI-H1437
Outline: as §1

H3255 = system: H3255
Outline: as §1

UMC-11 = system: UMC-11
Outline: as §1

LXF-289 = system: LXF-289
Outline: as §1

HCC-366 = system: HCC-366
Outline: as §1

SK-MES-1 = system: SK-MES-1
Outline: as §1

NCI-H2085 = system: NCI-H2085
Outline: as §1

NCI-H1666 = system: NCI-H1666
Outline: as §1

ABC-1 = system: ABC-1
Outline: as §1

COR-L23 = system: COR-L23
Outline: as §1

NCI-H2009 = system: NCI-H2009
Outline: as §1

HCC-827 = system: HCC-827
Outline: as §1

NCI-H1975 = system: NCI-H1975
Outline: as §1

PC-3 [JPC-3] = system: PC-3 [JPC-3]
Outline: as §1

NCI-H23 = system: NCI-H23
Outline: as §1

LC-2-ad = system: LC-2-ad
Outline: as §1

NCI-H2087 = system: NCI-H2087
Outline: as §1

NCI-H2342 = system: NCI-H2342
Outline: as §1

Q: How did the relative viability (LCLC-103H; first compound 0.001 µM) turn out when Cc1cn(-c2cc(NC(=O)c3ccc(C)c(Nc4nccc(-c5cccnc5)n4)c3)cc(C(F)(F)F)c2)cn1 [Nilotinib] + Nc1ncn([C@H]2C[C@H](O)[C@@H](CO)O2)c(=O)n1 [Decitabine] (partner 2 µM) was run?
A: 0.77

Q: What about the relative viability (LCLC-103H; first compound 0.003162 µM) of the same compound?
A: 0.883

Q: What about the relative viability (LCLC-103H; first compound 0.01 µM) of the same compound?
A: 0.815

Q: And the relative viability (LCLC-103H; first compound 0.03162 µM)?
A: 0.744

Q: What about the relative viability (LCLC-103H; first compound 0.1 µM) of the same compound?
A: 0.721

Q: And the relative viability (HCC-15; first compound 0.001 µM)?
A: 0.569

Q: And the relative viability (HCC-15; first compound 0.003162 µM)?
A: 0.77

Q: And the relative viability (HCC-15; first compound 0.01 µM)?
A: 0.718

Q: And the relative viability (HCC-15; first compound 0.03162 µM)?
A: 0.481

Q: What about the relative viability (HCC-15; first compound 0.1 µM) of the same compound?
A: 0.309

Q: What about the relative viability (PC-14; first compound 0.001 µM) of the same compound?
A: 0.24

Q: And the relative viability (PC-14; first compound 0.003162 µM)?
A: 0.263

Q: And the relative viability (PC-14; first compound 0.01 µM)?
A: 0.27

Q: And the relative viability (PC-14; first compound 0.03162 µM)?
A: 0.304

Q: And the relative viability (PC-14; first compound 0.1 µM)?
A: 0.266

Q: What about the relative viability (NCI-H661; first compound 0.001 µM) of the same compound?
A: 0.554

Q: What about the relative viability (NCI-H661; first compound 0.003162 µM) of the same compound?
A: 0.56

Q: What about the relative viability (NCI-H661; first compound 0.01 µM) of the same compound?
A: 0.644

Q: What about the relative viability (NCI-H661; first compound 0.03162 µM) of the same compound?
A: 0.469

Q: What about the relative viability (NCI-H661; first compound 0.1 µM) of the same compound?
A: 0.546

Q: And the relative viability (NCI-H1437; first compound 0.001 µM)?
A: 0.562

Q: What about the relative viability (NCI-H1437; first compound 0.003162 µM) of the same compound?
A: 0.632

Q: And the relative viability (NCI-H1437; first compound 0.01 µM)?
A: 0.625

Q: What about the relative viability (NCI-H1437; first compound 0.03162 µM) of the same compound?
A: 0.545

Q: And the relative viability (NCI-H1437; first compound 0.1 µM)?
A: 0.671

Q: And the relative viability (H3255; first compound 0.001 µM)?
A: 0.549

Q: And the relative viability (H3255; first compound 0.003162 µM)?
A: 0.659

Q: And the relative viability (H3255; first compound 0.03162 µM)?
A: 0.667

Q: What about the relative viability (H3255; first compound 0.1 µM) of the same compound?
A: 0.692

Q: What about the relative viability (UMC-11; first compound 0.001 µM) of the same compound?
A: 0.607

Q: What about the relative viability (UMC-11; first compound 0.003162 µM) of the same compound?
A: 0.591

Q: And the relative viability (UMC-11; first compound 0.01 µM)?
A: 0.566

Q: And the relative viability (UMC-11; first compound 0.03162 µM)?
A: 0.551

Q: And the relative viability (UMC-11; first compound 0.1 µM)?
A: 0.622

Q: What about the relative viability (LXF-289; first compound 0.001 µM) of the same compound?
A: 0.363

Q: What about the relative viability (LXF-289; first compound 0.003162 µM) of the same compound?
A: 0.447

Q: And the relative viability (LXF-289; first compound 0.01 µM)?
A: 0.391

Q: And the relative viability (LXF-289; first compound 0.03162 µM)?
A: 0.551

Q: What about the relative viability (LXF-289; first compound 0.1 µM) of the same compound?
A: 0.61

Q: And the relative viability (HCC-366; first compound 0.001 µM)?
A: 0.325

Q: And the relative viability (HCC-366; first compound 0.003162 µM)?
A: 0.348

Q: What about the relative viability (HCC-366; first compound 0.01 µM) of the same compound?
A: 0.41

Q: What about the relative viability (HCC-366; first compound 0.03162 µM) of the same compound?
A: 0.445

Q: What about the relative viability (HCC-366; first compound 0.1 µM) of the same compound?
A: 0.37

Q: And the relative viability (SK-MES-1; first compound 0.001 µM)?
A: 0.409

Q: What about the relative viability (SK-MES-1; first compound 0.003162 µM) of the same compound?
A: 0.487

Q: And the relative viability (SK-MES-1; first compound 0.01 µM)?
A: 0.575

Q: What about the relative viability (SK-MES-1; first compound 0.03162 µM) of the same compound?
A: 0.617

Q: And the relative viability (SK-MES-1; first compound 0.1 µM)?
A: 0.46

Q: What about the relative viability (NCI-H2085; first compound 0.001 µM) of the same compound?
A: 0.591

Q: And the relative viability (NCI-H2085; first compound 0.003162 µM)?
A: 0.619

Q: What about the relative viability (NCI-H2085; first compound 0.01 µM) of the same compound?
A: 0.675

Q: What about the relative viability (NCI-H2085; first compound 0.03162 µM) of the same compound?
A: 0.794

Q: What about the relative viability (NCI-H2085; first compound 0.1 µM) of the same compound?
A: 0.76

Q: And the relative viability (NCI-H1666; first compound 0.001 µM)?
A: 0.698

Q: What about the relative viability (NCI-H1666; first compound 0.01 µM) of the same compound?
A: 0.697

Q: What about the relative viability (NCI-H1666; first compound 0.03162 µM) of the same compound?
A: 0.606

Q: And the relative viability (NCI-H1666; first compound 0.1 µM)?
A: 0.613

Q: And the relative viability (ABC-1; first compound 0.001 µM)?
A: 0.987

Q: And the relative viability (ABC-1; first compound 0.003162 µM)?
A: 0.946

Q: And the relative viability (ABC-1; first compound 0.01 µM)?
A: 1.05

Q: What about the relative viability (ABC-1; first compound 0.03162 µM) of the same compound?
A: 0.978

Q: And the relative viability (ABC-1; first compound 0.1 µM)?
A: 0.96

Q: What about the relative viability (COR-L23; first compound 0.001 µM) of the same compound?
A: 0.445

Q: What about the relative viability (COR-L23; first compound 0.003162 µM) of the same compound?
A: 0.493

Q: And the relative viability (COR-L23; first compound 0.01 µM)?
A: 0.464

Q: What about the relative viability (COR-L23; first compound 0.03162 µM) of the same compound?
A: 0.482

Q: What about the relative viability (COR-L23; first compound 0.1 µM) of the same compound?
A: 0.601

Q: And the relative viability (NCI-H2009; first compound 0.001 µM)?
A: 0.372

Q: What about the relative viability (NCI-H2009; first compound 0.003162 µM) of the same compound?
A: 0.393

Q: And the relative viability (NCI-H2009; first compound 0.01 µM)?
A: 0.412

Q: What about the relative viability (NCI-H2009; first compound 0.03162 µM) of the same compound?
A: 0.406

Q: What about the relative viability (NCI-H2009; first compound 0.1 µM) of the same compound?
A: 0.421

Q: And the relative viability (HCC-827; first compound 0.001 µM)?
A: 0.303

Q: What about the relative viability (HCC-827; first compound 0.003162 µM) of the same compound?
A: 0.41

Q: What about the relative viability (HCC-827; first compound 0.03162 µM) of the same compound?
A: 0.296

Q: And the relative viability (HCC-827; first compound 0.1 µM)?
A: 0.328

Q: What about the relative viability (NCI-H1975; first compound 0.001 µM) of the same compound?
A: 0.339

Q: And the relative viability (NCI-H1975; first compound 0.003162 µM)?
A: 0.393

Q: And the relative viability (NCI-H1975; first compound 0.01 µM)?
A: 0.383

Q: And the relative viability (NCI-H1975; first compound 0.03162 µM)?
A: 0.389

Q: What about the relative viability (NCI-H1975; first compound 0.1 µM) of the same compound?
A: 0.275

Q: What about the relative viability (PC-3 [JPC-3]; first compound 0.001 µM) of the same compound?
A: 0.873

Q: And the relative viability (PC-3 [JPC-3]; first compound 0.01 µM)?
A: 1

Q: And the relative viability (PC-3 [JPC-3]; first compound 0.03162 µM)?
A: 0.897

Q: What about the relative viability (PC-3 [JPC-3]; first compound 0.1 µM) of the same compound?
A: 1.01

Q: What about the relative viability (NCI-H23; first compound 0.001 µM) of the same compound?
A: 0.355

Q: What about the relative viability (NCI-H23; first compound 0.003162 µM) of the same compound?
A: 0.352

Q: And the relative viability (NCI-H23; first compound 0.01 µM)?
A: 0.344

Q: And the relative viability (NCI-H23; first compound 0.03162 µM)?
A: 0.351

Q: And the relative viability (NCI-H23; first compound 0.1 µM)?
A: 0.273

Q: And the relative viability (LC-2-ad; first compound 0.001 µM)?
A: 0.8

Q: What about the relative viability (LC-2-ad; first compound 0.003162 µM) of the same compound?
A: 0.982

Q: What about the relative viability (LC-2-ad; first compound 0.01 µM) of the same compound?
A: 0.796

Q: And the relative viability (LC-2-ad; first compound 0.03162 µM)?
A: 0.859

Q: And the relative viability (LC-2-ad; first compound 0.1 µM)?
A: 0.803

Q: And the relative viability (NCI-H2087; first compound 0.001 µM)?
A: 0.202

Q: And the relative viability (NCI-H2087; first compound 0.003162 µM)?
A: 0.244

Q: What about the relative viability (NCI-H2087; first compound 0.01 µM) of the same compound?
A: 0.261

Q: What about the relative viability (NCI-H2087; first compound 0.03162 µM) of the same compound?
A: 0.18

Q: And the relative viability (NCI-H2087; first compound 0.1 µM)?
A: 0.131

Q: And the relative viability (NCI-H2342; first compound 0.001 µM)?
A: 0.704

Q: And the relative viability (NCI-H2342; first compound 0.003162 µM)?
A: 0.735

Q: What about the relative viability (NCI-H2342; first compound 0.01 µM) of the same compound?
A: 0.666

Q: And the relative viability (NCI-H2342; first compound 0.03162 µM)?
A: 0.591

Q: And the relative viability (NCI-H2342; first compound 0.1 µM)?
A: 0.754

Source: the supplement of paper PMC10307832
